From PubChem BioAssay (NCI)
Where “and” joins values, the source holds several entries; their conditions need not be identical. Equal values may be shown once.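 Where inhibition never reached the appropriate level, the endpoint shown equals the highest concentration tested. Otherwise, values were interpolated linearly from a five-concentration, 48-hour dose response in 96-well plates. GI50: concentration for 50% inhibition of growth. TGI denotes the concentration required for complete inhibition of growth.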

Assays:
Test in all cases: NCI tumour cell line growth inhibition, 48 h
[1] = test system: NCI-H23 lung
[2] = test system: HOP-92 NSCLC
[3] = test system: LOX IMVI melanoma
[4] = test system: DLD-1 colon
[5] = test system: SF-539 CNS
[6] = test system: ACHN renal
[7] = test system: HCT-116 colon
[8] = test system: RXF 393 renal
[9] = test system: UACC-62 melanoma
[10] = test system: KM12 colon
[11] = test system: U251 CNS
[12] = test system: A498 renal
[13] = test system: NCI-H522 lung
[14] = test system: TK-10 renal
[15] = test system: K-562 leukemia
[16] = test system: IGROV1 ovarian
[17] = test system: A549 NSCLC
[18] = test system: 786-0 renal
[19] = test system: M19-MEL melanoma
[20] = test system: SR leukemia
[21] = test system: RPMI-8226 leukemia
[22] = test system: HOP-62 NSCLC
[23] = test system: SF-268 CNS
[24] = test system: HS 578T breast
[25] = test system: OVCAR-8 ovarian
[26] = test system: PC-3 prostate
[27] = test system: BT-549 breast
[28] = test system: EKVX NSCLC
[29] = test system: COLO 205 colon
[30] = test system: SNB-75 CNS
[31] = test system: MDA-MB-435
[32] = test system: DMS 273 small cell lung
[33] = test system: MDA-MB-231 breast
[34] = test system: OVCAR-5 ovarian
[35] = test system: MOLT-4 leukemia
[36] = test system: NCI-H226 lung
[37] = test system: HL-60(TB) leukemia
[38] = test system: NCI/ADR-RES ovarian
[39] = test system: NCI-H460 lung
[40] = test system: T-47D breast
[41] = test system: MCF7 breast
[42] = test system: KM20L2 colon
[43] = test system: DU-145 prostate
[44] = test system: SNB-78 CNS
[45] = test system: SW-620 colon
[46] = test system: UACC-257 melanoma
[47] = test system: XF 498 CNS
[48] = test system: SN12C renal
[49] = test system: DMS 114 small cell lung
[50] = test system: HT29 colon
[51] = test system: CAKI-1 renal
[52] = test system: LXFL 529 NSCLC
[53] = test system: MALME-3M melanoma
[54] = test system: M14 melanoma
[55] = test system: HCC-2998 colon
[56] = test system: SK-OV-3 ovarian
[57] = test system: SK-MEL-2 melanoma
[58] = test system: CCRF-CEM leukemia
[59] = test system: SK-MEL-5 melanoma
[60] = test system: SK-MEL-28 melanoma
[61] = test system: OVCAR-4 ovarian
[62] = test system: SNB-19 CNS
[63] = test system: SF-295 CNS
[64] = test system: HCT-15 colon
[65] = test system: OVCAR-3 ovarian
[66] = test system: MDA-N
[67] = test system: UO-31 renal
[68] = test system: HOP-18 NSCLC

Structure (SMILES): O=C(CCl)Nc1ccc(C(=O)N/N=C/c2ccc(Cl)cc2)cc1
- GI50 [1]: 1.62 µM
- TGI [1]: 3.19 µM and 6.87 µM
- TGI [2]: 4.53 µM
- GI50 [3]: 1.72 µM
- TGI [3]: 3.5 µM and 2.91 µM
- TGI [4]: 4.93 µM
- GI50 [5]: 1.75 µM
- TGI [5]: 3.29 µM and 4.35 µM
- GI50 [6]: 2.92 µM
- TGI [6]: 6.57 µM and 9.22 µM
- GI50 [7]: 1.57 µM
- TGI [7]: 3.18 µM and 3.7 µM
- GI50 [8]: 2.09 µM
- TGI [8]: 2.39 µM and 6.52 µM
- GI50 [9]: 1.71 µM
- TGI [9]: 3.2 µM and 8.78 µM
- GI50 [10]: 1.84 µM
- TGI [10]: 3.84 µM and 2.74 µM
- TGI [11]: 3.61 µM and 3.24 µM
- GI50 [12]: 13 µM
- TGI [12]: 4.85 µM and 26.7 µM
- TGI [13]: 3.6 µM and 3.61 µM
- GI50 [14]: 1.83 µM
- TGI [14]: 3.91 µM and 29.5 µM
- GI50 [15]: 2 µM
- TGI [15]: 4.04 µM and 7.46 µM
- GI50 [16]: 1.85 µM
- TGI [16]: 3.86 µM and 2.34 µM
- GI50 [17]: 3.96 µM
- TGI [17]: 15.2 µM
- TGI [18]: 3.09 µM and 3.12 µM
- TGI [19]: 25.6 µM
- TGI [20]: 3.93 µM
- GI50 [21]: 9.09 µM
- TGI [21]: 6.54 µM and 32.5 µM
- GI50 [22]: 1.74 µM
- TGI [22]: 3.45 µM and 14.7 µM
- GI50 [23]: 1.81 µM
- TGI [23]: 3.88 µM and 6.85 µM
- TGI [24]: 6.7 µM
- TGI [25]: 5.29 µM and 6.97 µM
- GI50 [26]: 10.1 µM
- TGI [26]: 3.53 µM and 21.9 µM
- TGI [27]: 3.53 µM and 4.11 µM
- GI50 [28]: 20 µM
- TGI [28]: 4.02 µM and 38.5 µM
- GI50 [29]: 2.01 µM
- TGI [29]: 4.05 µM and 1.44 µM
- TGI [30]: 30.5 µM
- GI50 [31]: 9.67 µM
- TGI [31]: 3.27 µM and 21.7 µM
- TGI [32]: 4.12 µM
- GI50 [33]: 0.198 µM
- TGI [33]: 3.68 µM and 0.417 µM
- GI50 [34]: 1.98 µM
- TGI [34]: 3.6 µM and 33.1 µM
- GI50 [35]: 2.44 µM
- TGI [35]: 6.28 µM and 5.35 µM
- TGI [36]: 35.3 µM
- GI50 [37]: 1.19 µM
- TGI [37]: 6.51 µM and 3.77 µM
- GI50 [38]: 1.5 µM
- TGI [38]: 8 µM and 3.38 µM
- TGI [39]: 3.84 µM and 4.23 µM
- GI50 [40]: 0.195 µM
- GI50 [41]: 10 µM
- TGI [41]: 22.6 µM
- TGI [42]: 27.4 µM
- GI50 [43]: 13.5 µM
- TGI [43]: 8.44 µM and 27 µM
- TGI [44]: 15.8 µM
- GI50 [45]: 3.35 µM
- TGI [45]: 6.81 µM and 7.06 µM
- GI50 [46]: 12.2 µM
- TGI [46]: 3.73 µM and 25 µM
- TGI [47]: 3 µM
- TGI [48]: 9.71 µM and 7.07 µM
- TGI [49]: 2.94 µM
- GI50 [50]: 2.25 µM
- TGI [50]: 3.18 µM and 4.61 µM
- GI50 [51]: 1.87 µM
- TGI [51]: 4.39 µM and 3.35 µM
- TGI [52]: 3.2 µM
- GI50 [53]: 3.79 µM
- TGI [53]: 3.63 µM and 14.2 µM
- GI50 [54]: 1.89 µM
- TGI [54]: 3.42 µM and 18.3 µM
- GI50 [55]: 3.85 µM
- TGI [55]: 22.5 µM
- GI50 [56]: 12.3 µM
- TGI [56]: 8.02 µM and 24.7 µM
- GI50 [57]: 2.28 µM
- TGI [57]: 4.14 µM and 14.7 µM
- GI50 [58]: 2.23 µM
- TGI [58]: 5.32 µM and 4.46 µM
- GI50 [59]: 2.14 µM
- TGI [59]: 4.45 µM and 13.6 µM
- GI50 [60]: 3.59 µM
- TGI [60]: 16.8 µM
- TGI [61]: 4.48 µM and 4.43 µM
- GI50 [62]: 3.09 µM
- TGI [62]: 5.74 µM and 20.1 µM
- GI50 [63]: 1.65 µM
- TGI [63]: 3.1 µM and 9.23 µM
- GI50 [64]: 1.48 µM
- TGI [64]: 3.74 µM and 9.73 µM
- TGI [65]: 3.42 µM and 3.6 µM
- GI50 [66]: 11 µM
- TGI [66]: 3.69 µM and 24.3 µM
- TGI [67]: 10.6 µM

Structure (SMILES): COc1ccc2[nH]c3c(C)c4cc[n+](COC(=O)c5ccccc5)cc4c(C)c3c2c1
- TGI [6]: 5.97 µM
- TGI [14]: 4.4 µM
- TGI [15]: 1.46 µM
- TGI [68]: 0.312 µM
- TGI [20]: 0.213 µM
- TGI [21]: 1.7 µM
- TGI [22]: 24 µM
- TGI [23]: 3.81 µM
- TGI [35]: 0.584 µM
- TGI [37]: 4.13 µM
- TGI [47]: 5.67 µM
- TGI [51]: > 100 µM
- TGI [53]: 7.06 µM
- TGI [56]: 5.78 µM
- TGI [58]: 1.75 µM
- TGI [62]: 6.85 µM
- TGI [63]: 1.65 µM
- TGI [65]: 5.27 µM
- TGI [67]: 5.68 µM

Structure (SMILES): OCCN(CCO)c1ncnc2c1sc(=S)n2-c1ccccc1
- TGI [1]: > 100 µM
- TGI [2]: > 100 µM
- TGI [3]: > 100 µM
- TGI [4]: > 100 µM
- TGI [5]: > 100 µM
- TGI [6]: > 100 µM
- TGI [7]: > 100 µM
- TGI [8]: > 100 µM
- TGI [9]: > 100 µM
- TGI [10]: > 100 µM
- TGI [11]: > 100 µM
- TGI [12]: > 100 µM
- TGI [13]: > 100 µM
- TGI [14]: > 100 µM
- TGI [15]: > 100 µM
- TGI [16]: > 100 µM
- TGI [17]: > 100 µM
- TGI [18]: > 100 µM
- TGI [68]: > 100 µM
- TGI [19]: > 100 µM
- TGI [20]: > 100 µM
- TGI [21]: > 100 µM
- TGI [22]: > 100 µM
- TGI [23]: > 100 µM
- TGI [25]: > 100 µM
- TGI [28]: > 100 µM
- TGI [29]: > 100 µM
- TGI [30]: > 100 µM
- TGI [32]: > 100 µM
- TGI [34]: > 100 µM
- TGI [35]: > 100 µM
- TGI [36]: > 100 µM
- TGI [37]: > 100 µM
- TGI [39]: > 100 µM
- TGI [42]: > 100 µM
- TGI [44]: > 100 µM
- TGI [45]: > 100 µM
- TGI [46]: > 100 µM
- TGI [47]: > 100 µM
- TGI [48]: > 100 µM
- TGI [49]: > 100 µM
- TGI [50]: > 100 µM
- TGI [51]: > 100 µM
- TGI [52]: > 100 µM
- TGI [53]: > 100 µM
- TGI [54]: > 100 µM
- TGI [55]: > 100 µM
- TGI [56]: > 100 µM
- TGI [57]: > 100 µM
- TGI [58]: > 100 µM
- TGI [59]: > 100 µM
- TGI [60]: > 100 µM
- TGI [61]: > 100 µM
- TGI [62]: > 100 µM
- TGI [63]: > 100 µM
- TGI [64]: > 100 µM
- TGI [65]: > 100 µM
- TGI [67]: > 100 µM
